According to ChEMBL document CHEMBL1143411, “Concentration-effect relationship of ceftazidime explains why the time above the MIC is 40 percent for a static effect in vivo” (Antimicrob Agents Chemother, 2007):
In brackets after ≈: the same amount, converted by molar mass.

Key:
[1] = Elimination rate constant in human; assay type: ADME, organism-based; settings: in vivo
Homo sapiens [2] = experiment: %fT>MIC in human at 59.8 mg/kg administered every 8 hrs; assay type: ADME, organism-based; parameters: dose 59.8 mg/kg; settings: in vivo
Mus musculus [3] = experiment: %fT>MIC in mouse at 35.6 mg/kg administered every 6 hrs; assay type: ADME, organism-based; parameters: dose 35.6 mg/kg; settings: in vivo
Mus musculus [4] = experiment: %fT>MIC in mouse at 4.60 mg/kg administered every 3 hrs; assay type: ADME, organism-based; parameters: dose 4.6 mg/kg; settings: in vivo, 4.6 mg/kg
Mus musculus [5] = experiment: %fT>MIC in mouse at 2.12 mg/kg administered every 2 hrs; assay type: ADME, organism-based; parameters: dose 2.12 mg/kg; settings: in vivo
Pseudomonas aeruginosa [6] = experiment: Antibacterial activity against Pseudomonas aeruginosa ATCC 27853 assessed as maximum bacterial kill rate by time-kill study; assay type: functional
Homo sapiens [7] = experiment: %fT>MIC in human at 121 mg/kg administered every 12 hrs; assay type: ADME, organism-based; parameters: dose 121 mg/kg; settings: in vivo
Homo sapiens [8] = experiment: %fT>MIC in human at 20.2 mg/kg administered every 4 hrs; assay type: ADME, organism-based; parameters: dose 20.2 mg/kg; settings: in vivo
[9] = Volume of distribution in mouse; assay type: ADME, organism-based; settings: in vivo, read-out: Vc
Mus musculus [10] = experiment: %fT>MIC in mouse at 129.7 mg/kg administered every 8 hrs; assay type: ADME, organism-based; parameters: dose 129.7 mg/kg; settings: in vivo
Mus musculus [11] = experiment: %fT>MIC in mouse at 9.29 mg/kg administered every 4 hrs; assay type: ADME, organism-based; parameters: dose 9.29 mg/kg; settings: in vivo
Pseudomonas aeruginosa [12] = experiment: Antibacterial activity against Pseudomonas aeruginosa ATCC 27853 assessed as bacterial growth rate by time-kill study; assay type: functional
[13] = Elimination rate constant in mouse; assay type: ADME, organism-based; settings: in vivo
Pseudomonas aeruginosa [14] = experiment: Antibacterial activity against Pseudomonas aeruginosa ATCC 27853 by microdilution method; assay type: functional, organism-based
Homo sapiens [15] = experiment: %fT>MIC in human at 38.9 mg/kg administered every 6 hrs; assay type: ADME, organism-based; parameters: dose 38.9 mg/kg; settings: in vivo
[16] = Volume of distribution in human; assay type: ADME, organism-based; settings: in vivo, read-out: Vc

CC(C)(O/N=C(\C(=O)N[C@@H]1C(=O)N2C(C(=O)[O-])=C(C[n+]3ccccc3)CS[C@H]12)c1csc(N)n1)C(=O)O [CEFTAZIDIME]
k el [1]: 0.000128 s⁻¹
fT>MIC (Homo sapiens [2]): 37.9%
fT>MIC (Mus musculus [3]): 36.5%
fT>MIC (Mus musculus [4]): 38.1%
fT>MIC (Mus musculus [5]): 37.3%
Activity (Pseudomonas aeruginosa [6]): 4.15 h⁻¹
fT>MIC (Homo sapiens [7]): 37.7%
fT>MIC (Homo sapiens [8]): 23.7%
Vd [9]: 0.5 L/kg
fT>MIC (Mus musculus [10]): 35.7%
fT>MIC (Mus musculus [11]): 37.6%
Activity (Pseudomonas aeruginosa [12]): -1.41 h⁻¹
k el [13]: 0.000544 s⁻¹
EC50 (Pseudomonas aeruginosa [14]): 1.22 µg/mL (≈ 2.23 µM)
fT>MIC (Homo sapiens [15]): 36.3%
Vd [16]: 1.4 L
